Experimental data taken from US9422307B2, “2,4,7-substituted thieno[3,2-d]pyrimidine compounds as protein kinase inhibitors” (KOREA INSTITUTE OF SCIENCE AND TECHNOLOGY, priority 2009, dated 2016).

Experiments:
Full sequence FAK = Full sequence FAK (Homo sapiens (Human), UniProt Q05397); assay: Measurement of FAK kinase activity (ULight-LANCE assay); assay type: biochemical; settings: TR-FRET, 3 nM FAK, 10 μM ATP; read-out: FAK inhibition activity (IC50)
Protocol: ULight-poly GT (PerkinElmer #TRF0100-D), Eu-anti-phospho-Tyr (PT66) (PerkinElmer #AD0068) and Lance detection buffer (PerkinElmer #CR-97-100) were purchased from PerkinElmer. […] 4× ULight-poly GT was adjusted to a final concentration of 100 nM. ATP (Sigma #A2383) was adjusted to a final concentration of 10 μM and in 2.5 μL aliquots. The test compound was sequentially diluted at 12 concentrations and treated with an amount of 0.5 μL. After shaking well and allowing to react at room temperature for 60 minutes, 5 μL of ethylenediaminetetraacetic acid (EDTA, final concentration 40 mM) diluted in Lance detection buffer (Lance detection buffer) was added and the mixture was left at room temperature for 5 minutes to stop the reaction. After adding 4× Eu-anti-phospho-Tyr (PT66) phosphorylated antibody diluted to a final concentration of 2 nM in detection buffer with an amount of 5 μL, and reaction was performed at room temperature for 60 minutes.

[1] = system: HT-29 human colon adenocarcinoma cells; assay: Inhibition of proliferation of HT-29 human colon adenocarcinoma cells (MTT assay); assay type: cell-based; settings: HT-29 cells, read-out: Inhibition activity against proliferation of the HT-29 cells (GI50)
Protocol: HT-29 human colon adenocarcinoma cells were cultured in DMEM [10% FBS, 1% penicillin/streptomycin] at 37° C. in the presence of 5% CO2. The cultured HT-29 cells were harvested with 0.05% trypsin-0.02% EDTA and seeded in a 96-well plate at 5×10^3 cells per well.
3-(4,5-Dimethylthiazol-2-yl)-2,5-diphenyltetrazolium bromide (MTT) assay (CellTiter 96 Assay, Promega) was used to measure cell viability. After adding 15 μL of a dye per well and culturing for 2 hours, the cells were treated with 100 μL of a stop solution and absorbance was measured 24 hours later. The test compound was treated a day after plating. The test compound had been sequentially diluted at 12 concentrations from a 10 mM stock solution using sterilized dimethylsulfoxide (DMSO) and treated with an amount of 0.5 μL. Absorbance at 590 nm was recorded using EnVision2103, and GI50 value was calculated using GraphPad Prism 4.0 software.

[2] = system: prostate cancer PC-3, breast cancer BT-474, colon LoVo, lung cancer NCI-H460, glioblastoma U-87 MG and pancreatic cancer BxPC-3 cells; settings: cited from earlier work
tumor = settings: concurrent administration with docetaxel, animal model, P values<0.01; cited from earlier work

Full sequence FAK, sequence (Q05397 whole entry): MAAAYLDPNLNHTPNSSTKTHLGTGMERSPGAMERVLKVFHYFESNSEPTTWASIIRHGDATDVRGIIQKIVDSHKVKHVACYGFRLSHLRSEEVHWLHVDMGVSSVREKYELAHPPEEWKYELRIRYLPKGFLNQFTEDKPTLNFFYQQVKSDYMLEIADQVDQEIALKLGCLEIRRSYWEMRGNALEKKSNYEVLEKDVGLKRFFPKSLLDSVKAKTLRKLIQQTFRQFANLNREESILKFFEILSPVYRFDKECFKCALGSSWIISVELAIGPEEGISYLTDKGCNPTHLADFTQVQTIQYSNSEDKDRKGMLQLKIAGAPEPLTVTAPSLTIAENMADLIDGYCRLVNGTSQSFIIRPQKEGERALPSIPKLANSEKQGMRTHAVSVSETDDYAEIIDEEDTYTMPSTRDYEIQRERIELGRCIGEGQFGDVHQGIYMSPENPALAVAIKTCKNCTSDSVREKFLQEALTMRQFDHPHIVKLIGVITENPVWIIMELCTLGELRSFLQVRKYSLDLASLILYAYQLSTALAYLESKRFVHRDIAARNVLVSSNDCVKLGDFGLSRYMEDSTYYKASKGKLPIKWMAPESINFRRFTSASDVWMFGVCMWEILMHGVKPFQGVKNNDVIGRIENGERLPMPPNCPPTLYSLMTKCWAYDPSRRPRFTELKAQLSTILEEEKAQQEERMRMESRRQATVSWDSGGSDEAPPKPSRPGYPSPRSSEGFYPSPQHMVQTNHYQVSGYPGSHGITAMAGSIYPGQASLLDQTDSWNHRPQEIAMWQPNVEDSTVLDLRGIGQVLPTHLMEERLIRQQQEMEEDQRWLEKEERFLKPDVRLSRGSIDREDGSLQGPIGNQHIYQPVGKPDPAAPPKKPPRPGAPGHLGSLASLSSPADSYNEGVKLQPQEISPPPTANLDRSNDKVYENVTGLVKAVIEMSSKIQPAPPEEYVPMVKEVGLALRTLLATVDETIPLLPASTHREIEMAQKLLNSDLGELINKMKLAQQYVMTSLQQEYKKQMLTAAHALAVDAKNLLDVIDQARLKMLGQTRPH

| Structure (SMILES) | IC50 (Full sequence FAK) | GI50 [1] | inhibition of tumor growth or tumor degeneration ([2]; human tumor xenograft, 25-100 mg/kg p.o.) | toxicity observed ([2]; in vivo) | tumor reduction (tumor) |
| --- | --- | --- | --- | --- | --- |
| CNC(=O)c1cccc(-c2csc3c(N)nc(Nc4ccc(N5CCOCC5)nc4)nc23)c1 [Example 2, 3-(4-amino-2-(6-morpholinopyridin-3-ylamino)thieno[3,2-d]pyrimidin-7-yl)-N-methylbenzamide] | < 10 µM | < 10 µM | – | – | – |
| CNC(=O)c1cccc(-c2csc3c(N)nc(Nc4ccc(N5CCC(O)CC5)cc4)nc23)c1 [Example 3, 3-(4-amino-2-(4-(4-hydroxypiperidin-1-yl)phenylamino)thieno[3,2-d]pyrimidin-7-yl)-N-methylbenzamide] | < 10 µM | < 10 µM | – | – | – |
| CCN1CCN(c2ccc(Nc3nc(N)c4scc(-c5cccc(C(=O)NC)c5)c4n3)cc2)CC1 [Example 6, 3-(4-amino-2-(4-(4-ethylpiperazin-1-yl)phenylamino)thieno[3,2-d]pyrimidin-7-yl)-N-methylbenzamide] | < 10 µM | < 10 µM | – | – | – |
| CNC(=O)c1cccc(-c2csc3c(N)nc(Nc4ccc(N5CCC(N6CCCC6)CC5)cc4)nc23)c1 [Example 7, 3-(4-amino-2-(4-(4-(pyrrolidin-1-yl)piperidin-1-yl)phenylamino)thieno[3,2-d]pyrimidin-7-yl)-N-methylbenzamide] | < 10 µM | < 10 µM | – | – | – |
| COc1cc(Nc2nc(N)c3scc(-c4cccc(NC(=O)C5CC5)c4)c3n2)cc(OC)c1OC [Example 15, N-(3-(4-amino-2-(3,4,5-trimethoxyphenylamino)thieno[3,2-d]pyrimidin-7-yl)phenyl)cyclopropanecarboxamide] | < 10 µM | < 10 µM | – | – | – |
| CCS(=O)(=O)Nc1cccc(-c2csc3c(N)nc(Nc4cc(OC)c(OC)c(OC)c4)nc23)c1 [Example 17, N-(3-(4-amino-2-(3,4,5-trimethoxyphenylamino)thieno[3,2-d]pyrimidin-7-yl)phenyl)ethanesulfonamide] | < 10 µM | < 10 µM | – | – | – |
| CNS(=O)(=O)c1cccc(-c2csc3c(N)nc(Nc4cc(OC)c(OC)c(OC)c4)nc23)c1 [Example 26, 3-(4-amino-2-(3,4,5-trimethoxyphenylamino)thieno[3,2-d]pyrimidin-7-yl)-N-methylbenzenesulfonamide] | < 10 µM | < 10 µM | – | – | – |
| CCN1CCN(c2ccc(Nc3nc(N)c4scc(-c5cccc(NS(C)(=O)=O)c5)c4n3)cn2)CC1 [Example 27, N-(3-(4-amino-2-(6-(4-ethylpiperazin-1-yl)pyridin-3-ylamino)thieno[3,2-d]pyrimidin-7-yl)phenyl)methanesulfonamide] | < 10 µM | < 10 µM | – | – | – |
| CCN1CCN(c2ccc(Nc3nc(N)c4scc(-c5cnc6ccccc6c5)c4n3)cn2)CC1 [Example 39, N^2-(6-(4-ethylpiperazin-1-yl)pyridin-3-yl)-7-(quinolin-3-yl)thieno[3,2-d]pyrimidin-2,4-diamine] | < 10 µM | < 10 µM | – | – | – |
| CCN1CCN(c2ccc(Nc3nc(N)c4scc(-c5cnc6ccccc6c5)c4n3)cc2)CC1 [Example 41, N^2-(4-(4-ethylpiperazin-1-yl)phenyl)-7-(quinolin-3-yl)thieno[3,2-d]pyrimidin-2,4-amine] | < 10 µM | < 10 µM | – | – | – |
| Nc1nc(Nc2ccc(N3CCOCC3)nc2)nc2c(-c3cnc4ccccc4c3)csc12 [Example 42, N^2-(6-morpholinopyridin-3-yl)-7-(quinolin-3-yl)thieno[3,2-d]pyrimidin-2,4-diamine] | < 10 µM | < 10 µM | – | – | – |
| CCN1CCN(c2cccc(Nc3nc(N)c4scc(-c5cnc6ccccc6c5)c4n3)c2)CC1 [Example 43, N^2-(3-(4-ethylpiperazin-1-yl)phenyl)-7-(quinolin-3-yl)thieno[3,2-d]pyrimidin-2,4-diamine] | < 10 µM | < 10 µM | – | – | – |
| C#Cc1csc2c(NCc3ccccc3)nc(NC[C@H](C)O)nc12 [Example 44, (S)-1-(4-(benzylamino)-7-ethynylthieno[3,2-d]pyrimidin-2-ylamino)propan-2-ol] | – | < 10 µM | – | – | – |
| C#Cc1csc2c(N[C@H](C)c3ccccc3)nc(NC[C@H](C)O)nc12 [Example 45, (S)-1-(7-ethynyl-4-((R)-1-phenylethylamino)thieno[3,2-d]pyrimidin-2-ylamino)propan-2-ol] | < 10 µM | < 10 µM | – | – | – |
| C=Cc1csc2c(NCc3ccccc3)nc(NCCN3CCOCC3)nc12 [Example 46, N^4-benzyl-N^2-(2-morpholinoethyl)-7-vinylthieno[3,2-d]pyrimidin-2,4-diamine] | < 10 µM | < 10 µM | – | – | – |
| C=Cc1csc2c(N[C@H](C)c3ccccc3)nc(NCCN3CCOCC3)nc12 [Example 47, (R)—N^2-(2-morpholinoethyl)-N^4-(1-phenylethyl)-7-vinylthieno[3,2-d]pyrimidin-2,4-diamine] | < 10 µM | < 10 µM | – | – | – |
| CCc1csc2c(NCc3ccccc3)nc(NCCN3CCOCC3)nc12 [Example 48, N^4-benzyl-7-ethyl-N^2-(2-morpholinoethyl)thieno[3,2-d]pyrimidin-2,4-diamine] | < 10 µM | < 10 µM | – | – | – |
| CN(c1ncccc1CNc1nc(Nc2ccc3c(c2)CC(=O)N3)ncc1C(F)(F)F)S(C)(=O)=O [PF-562271] | – | – | 42-90% | No special toxicity has been observed | – |
| CNC(=O)c1ccccc1Nc1nc(Nc2ccc(N3CCOCC3)cc2OC)ncc1Cl [TAE226] | – | – | – | – | 85-97% |
